Laboratory results from patent US20030055004A1, “GPE analogs and peptidominetics” (priority 2001, published 2003).

Test system: cortical cultures
Assay: Neuroprotection in cortical cultures after toxin (okadaic acid), MTT survival assay
Type: cell-based, rat
Details: higher concentrations of GPE, FIG. 12, 24 hrs incubation, 8DIV
Protocol: One cortical hemisphere from a postnatal day 1 rat was used and collected into 4 ml of DMEM. Trituration was done with a 5 ml glass pipette and subsequently through an 18 gauge needle. Afterwards, the cell suspension was sieved through a 100 μm cell strainer and washed in 50 ml DMEM (centrifugation for 5 min at 250 g). […] After cells reached confluence, they were washed three times with PBS and adjusted to Neurobasal/B27 and incubated for another 3 days. This supernatant was frozen for transient storage until usage at −80° C. A dam was sacrificed by CO2-treatment in a chamber for up to 4 minutes and was prepared then for cesarean section. After surgery, the embryos were removed from their amniotic sacs, decapitated and the heads put on ice in DMEM/F12 medium for striatum and PBS+0.65% D(+)-glucose for cortex. The two cortical hemispheres were carefully removed by a spatula from the whole brain with the ventral side facing upside into a PBS +0.65% D(+)-glucose containing petri dish. […] Cells were counted and adjusted to 50,000 cells per 60 μl. […] The survival rate was determined by a colorimetric end-point MTT-assay at 595 nm in a multi-well plate reader. For the cerebellar microexplants four windows (field of 0.65 mm^2) with highest cell density were chosen and cells displaying neurite outgrowth were counted.

NCC(=O)N1CCC[C@H]1C(=O)N[C@@H](CCC(=O)O)C(=O)O [GPE, glycyl-L-prolyl-L-glutamic acid]
neuroprotection: 64%
